In ChEMBL document CHEMBL4038322, “Interactions between β2-Adrenoceptor Ligands and Membrane: Atomic-Level Insights from Magic-Angle Spinning NMR” (J Med Chem, 2017):
Calls of active or inactive are those of the source. The calls are words filed in the database; no cut-off is given here.

Key:
[1] = system: Lipid bilayer; assay: Binding affinity to POPC liposome membrane assessed as 31P chemical shift anisotropy at compound to POPC molar ratio of 1:10 by NMR analysis (reference value: 28.9 ppm)
[2] = n-octanol/PBS/sodium carbonate partition coefficient, log P of the compound after 4 hrs; type: physicochemical
[3] = Lipophilicity of the compound assessed as capacity factor (CHI IAM7.4) at pH 7.4 by chromatographic analysis; type: physicochemical; conditions: buffer
[4] = system: Lipid bilayer; assay: Binding affinity to POPC liposome membrane assessed as cross-relaxation rate of F proton with C-3/C-2 region of lipid at compound to POPC molar ratio of 1:10 by NOESY 1H NMR analysis
[5] = system: Lipid bilayer; assay: Binding affinity to POPC liposome membrane assessed as cross-relaxation rate of E proton with C-3/C-2 region of lipid at compound to POPC molar ratio of 1:10 by NOESY 1H NMR analysis
[6] = system: Lipid bilayer; assay: Binding affinity to POPC liposome membrane assessed as cross-relaxation rate of F protons with lipid acyl CH3 at compound to POPC molar ratio of 1:10 by NOESY 1H NMR analysis; parameters: scale not given: the % may be the effect or the level left
[7] = system: Lipid bilayer; assay: Binding affinity to POPC liposome membrane assessed as cross-relaxation rate of F protons with segment G-3 at compound to POPC molar ratio of 1:10 by NOESY 1H NMR analysis; parameters: scale not given: the % may be the effect or the level left
[8] = system: Lipid bilayer; assay: Binding affinity to POPC liposome membrane assessed as cross-relaxation rate of F protons with segment alpha at compound to POPC molar ratio of 1:10 by NOESY 1H NMR analysis; parameters: scale not given: the % may be the effect or the level left
[9] = system: Lipid bilayer; assay: Binding affinity to POPC liposome membrane assessed as cross-relaxation rate of F protons with segment beta at compound to POPC molar ratio of 1:10 by NOESY 1H NMR analysis; parameters: scale not given: the % may be the effect or the level left
[10] = system: Lipid bilayer; assay: Binding affinity to POPC liposome membrane assessed as cross-relaxation rate of F protons with segment gamma at compound to POPC molar ratio of 1:10 by NOESY 1H NMR analysis; parameters: scale not given: the % may be the effect or the level left
[11] = system: Lipid bilayer; assay: Binding affinity to POPC liposome membrane in liquid disorder phase assessed as change in cross-relaxation rate of hydrophilic group B protons with G-1 segment at compound to POPC molar ratio of 1:10 to 1:5 by 1D 1H […] analysis
[12] = system: Lipid bilayer; assay: Binding affinity to POPC liposome membrane in liquid disorder phase assessed as change in cross-relaxation rate of hydrophilic group B protons with G-3 segment at compound to POPC molar ratio of 1:10 to 1:5 by 1D 1H […] analysis
[13] = system: Lipid bilayer; assay: Binding affinity to POPC liposome membrane assessed as cross-relaxation rate of E protons with (CH2)n segment at compound to POPC molar ratio of 1:10 by NOESY 1H NMR analysis
[14] = system: Lipid bilayer; assay: Binding affinity to POPC liposome membrane assessed as cross-relaxation rate of E protons with CH2-C= segment at compound to POPC molar ratio of 1:10 by NOESY 1H NMR analysis
[15] = system: Lipid bilayer; assay: Binding affinity to POPC liposome membrane assessed as cross-relaxation rate of E protons with C2/C3 segment at compound to POPC molar ratio of 1:10 by NOESY 1H NMR analysis
[16] = system: Lipid bilayer; assay: Binding affinity to POPC liposome membrane at compound to POPC molar ratio of 1:10 after 300 milliseconds by NOESY 1H NMR analysis
[17] = system: Lipid bilayer; assay: Binding affinity to POPC liposome membrane assessed as cross-relaxation rate of H proton with C-3/C-2 region of lipid at compound to POPC molar ratio of 1:10 by NOESY 1H NMR analysis
[18] = system: Lipid bilayer; assay: Binding affinity to POPC liposome membrane assessed as 31P chemical shift anisotropy at compound to POPC molar ratio of 1:10 in presence of Mn2+ by NMR analysis
[19] = system: Lipid bilayer; assay: Binding affinity to POPC liposome membrane in liquid disorder phase assessed as change in cross-relaxation rate of lypophilic group E protons with C2/C3 segment at compound to POPC molar ratio of 1:10 to 1:5 by 1D 1H […] analysis
[20] = system: Lipid bilayer; assay: Binding affinity to POPC liposome membrane at compound to POPC molar ratio of 1:10 after 3 milliseconds by 2D NOESY NMR analysis
[21] = system: Lipid bilayer; assay: Binding affinity to POPC liposome membrane in liquid disorder phase assessed as broadening of POPC signals at compound to POPC molar ratio of 1:5 by 1D 1H […] analysis
[22] = system: Lipid bilayer; assay: Binding affinity to POPC liposome membrane at compound to POPC molar ratio of 1:10 after 3 milliseconds in presence of Mn2+ by 2D NOESY NMR analysis

Compound | Activity [1] | logP at 4 h [2] | CHI [3] | Activity [5] | Activity [11] | Activity [12] | other results
CCc1ccc(CC)c2c1CC(NC[C@H](O)c1ccc(O)c3[nH]c(=O)ccc13)C2 | 32 to 33.6 ppm | 3.03 | 58.9 | – | – | – | Activity [4]: Active
OCc1cc(C(O)CNCCCCCCOCCCCc2ccccc2)ccc1O (stereo not drawn) [SALMETEROL] | 32 to 33.6 ppm | 3.08 | 56.7 | < 0.0025 s⁻¹ | Active | Active | Activity [6]: 58%; Activity [7]: 49%; Activity [8]: 69%; Activity [9]: 26%; Activity [10]: 43%; Activity [13]: Active; Activity [14]: Active; Activity [15]: Active
COc1ccc(CC(C)NCC(O)c2ccc(O)c(NC=O)c2)cc1 (stereo not drawn) | 32 to 33.6 ppm | – | – | – | – | – | Activity [16]: Active; Activity [17]: Active
O=c1ccc2c([C@@H](O)CNC3Cc4ccccc4C3)ccc(O)c2[nH]1 | 32 to 33.6 ppm | 1.55 | 41.6 | Active | Active | Active | –
CCc1cc2c(cc1CC)CC(NC[C@H](O)c1ccc(O)c3[nH]c(=O)ccc13)C2 [INDACATEROL] | 32 to 33.6 ppm | 3.05 | 62.5 | Active | Active | Active | Activity [18]: Active; Activity [19]: Active; Activity [20]: Active; Activity [21]: 20 to 40%; Activity [22]: Active
